Experimental data from the supplement of paper PMC10307832.

What was measured:
Assay in all cases: relative viability (nuclei count vs DMSO), 5 days (fraction); higher = more cells survive
Kobe2602 + Crizotinib = compound: C1=CC(=CC=C1NC(=S)NNC2=C(C=C(C=C2[N+](=O)[O-])C(F)(F)F)[N+](=O)[O-])F [Kobe2602] + C[C@@H](Oc1cc(-c2cnn(C3CCNCC3)c2)cnc1N)c1c(Cl)ccc(F)c1Cl [Crizotinib] (partner 1 µM)
How it was run: (§1)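 Dosing by pin tool came one day after lung cancer cell lines were seeded in 1536-well plates, using either one drug or a fixed anchor-drug dose plus five library-drug doses (not always all listed) in √10 steps. After 5 days, nuclei were counted on 4× images. Relative viability is treated-well nuclei count divided by vehicle-well nuclei count, and values are medians of duplicate plates.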

Kobe2602 + Olaparib = compound: C1=CC(=CC=C1NC(=S)NNC2=C(C=C(C=C2[N+](=O)[O-])C(F)(F)F)[N+](=O)[O-])F [Kobe2602] + O=C(c1cc(Cc2n[nH]c(=O)c3ccccc23)ccc1F)N1CCN(C(=O)C2CC2)CC1 [Olaparib] (partner 8 µM)
How it was run: as §1

Kobe2602 + Alpelisib = compound: C1=CC(=CC=C1NC(=S)NNC2=C(C=C(C=C2[N+](=O)[O-])C(F)(F)F)[N+](=O)[O-])F [Kobe2602] + Cc1nc(NC(=O)N2CCC[C@H]2C(N)=O)sc1-c1ccnc(C(C)(C)C(F)(F)F)c1 [Alpelisib] (partner 2 µM)
How it was run: as §1

Kobe2602 + Linsitinib = compound: C1=CC(=CC=C1NC(=S)NNC2=C(C=C(C=C2[N+](=O)[O-])C(F)(F)F)[N+](=O)[O-])F [Kobe2602] + C[C@]1(O)C[C@@H](c2nc(-c3ccc4ccc(-c5ccccc5)nc4c3)c3c(N)nccn32)C1 [Linsitinib] (partner 1 µM)
How it was run: as §1

Row | Cell Line | relative viability (Kobe2602 + Crizotinib; first compound 0.2 µM) | relative viability (Kobe2602 + Crizotinib; first compound 0.6325 µM) | relative viability (Kobe2602 + Crizotinib; first compound 2 µM) | relative viability (Kobe2602 + Crizotinib; first compound 6.325 µM) | relative viability (Kobe2602 + Crizotinib; first compound 20 µM) | relative viability (Kobe2602 + Olaparib; first compound 0.2 µM) | relative viability (Kobe2602 + Olaparib; first compound 0.6325 µM) | relative viability (Kobe2602 + Olaparib; first compound 2 µM) | relative viability (Kobe2602 + Olaparib; first compound 6.325 µM) | relative viability (Kobe2602 + Olaparib; first compound 20 µM) | relative viability (Kobe2602 + Alpelisib; first compound 0.2 µM) | relative viability (Kobe2602 + Alpelisib; first compound 0.6325 µM) | relative viability (Kobe2602 + Alpelisib; first compound 2 µM) | relative viability (Kobe2602 + Alpelisib; first compound 6.325 µM) | relative viability (Kobe2602 + Alpelisib; first compound 20 µM) | relative viability (Kobe2602 + Linsitinib; first compound 0.2 µM) | relative viability (Kobe2602 + Linsitinib; first compound 0.6325 µM) | relative viability (Kobe2602 + Linsitinib; first compound 2 µM) | relative viability (Kobe2602 + Linsitinib; first compound 6.325 µM) | relative viability (Kobe2602 + Linsitinib; first compound 20 µM)
1 | 201T | 1.07 | 1.02 | 1.04 | 1.02 | 1.1 | 0.815 | 0.859 | 0.869 | 0.866 | 0.826 | 1.09 | 1.01 | 0.968 | 1.11 | 1.09 | 0.968 | 1.04 | 1.05 | 0.955 | 0.941
2 | A549 | 0.759 | 0.723 | 0.781 | 0.764 | 0.8 | 0.45 | 0.484 | 0.281 | 0.315 | 0.513 | 0.716 | 0.905 | 0.74 | 0.846 | 0.789 | 0.562 | 0.687 | 0.583 | 0.524 | 0.578
3 | A-427 | 0.898 | 0.903 | 0.843 | 1 | 1.01 | 0.74 | 0.726 | 0.73 | 0.785 | 0.701 | 1.11 | 1.12 | 1.06 | 1.05 | 1.1 | 1.1 | 1.15 | 1.09 | 0.954 | 1.17
4 | ABC-1 | 1 | 1.04 | 1.06 | 1.21 | 1.08 | 0.639 | 0.623 | 0.747 | 0.773 | 0.775 | 0.785 | 1.06 | 1.13 | 1.11 | 1.08 | 0.609 | 0.984 | 0.722 | 0.876 | 0.735
5 | BEN | 0.948 | 0.727 | 0.894 | 0.843 | 0.819 | 1.08 | 1.02 | 1 | 1.07 | 0.973 | 1.07 | 1.12 | 0.947 | 0.883 | 1.03 | 0.988 | 1.06 | 0.967 | 0.858 | 0.915
6 | CAL-12T | 0.604 | 0.569 | 0.618 | 0.641 | 0.549 | 0.697 | 0.685 | 0.678 | 0.707 | 0.784 | 0.92 | 1.39 | 0.67 | 0.981 | 1.19 | 0.707 | 0.821 | 0.705 | 0.916 | 0.709
7 | COR-L23 | 0.656 | 0.573 | 0.647 | 0.745 | 0.7 | 0.316 | 0.394 | 0.351 | 0.361 | 0.326 | 0.752 | 0.827 | 0.809 | 0.885 | 0.83 | 0.798 | 1.09 | 0.941 | 0.894 | 0.939
8 | COR-L 105 | 0.85 | 0.838 | 0.653 | 0.966 | 0.831 | 0.658 | 0.718 | 0.425 | 0.588 | 0.686 | 0.771 | 1.08 | 0.78 | 0.973 | 0.938 | 0.711 | 0.985 | 0.574 | 0.944 | 0.988
9 | Calu-6 | 0.84 | 0.78 | 0.786 | 0.744 | 0.813 | 0.581 | 0.589 | 0.606 | 0.631 | 0.514 | 0.883 | 1.04 | 0.96 | 1 | 0.987 | 0.911 | 0.975 | 0.897 | 0.954 | 0.895
10 | ChaGo-K-1 | 1.16 | 1.2 | 1.14 | 1.13 | 0.935 | 0.362 | 0.406 | 0.4 | 0.355 | 0.332 |  |  |  |  |  |  |  |  |  | 
11 | EBC-1 | 0.225 | 0.239 | 0.185 | 0.203 | 0.216 | 0.687 | 0.684 | 0.69 | 0.647 | 0.759 | 0.876 | 0.963 | 0.958 | 0.839 | 0.894 | 0.796 | 0.975 | 0.893 | 0.938 | 0.871
12 | EKVX | 1.11 | 0.705 | 0.865 | 0.887 | 0.956 | 0.749 | 0.792 | 0.864 | 0.786 | 0.808 | 0.886 | 0.852 | 0.826 | 0.913 | 0.925 | 1.02 | 1.02 | 0.919 | 0.971 | 1.03
13 | EMC-BAC-2 | 0.759 | 0.799 | 0.754 | 0.755 | 0.747 | 0.511 | 0.531 | 0.46 | 0.559 | 0.532 | 0.745 | 0.827 | 0.733 | 0.817 | 0.738 | 0.794 | 0.869 | 0.817 | 0.796 | 0.793
14 | EPLC-272H | 0.772 | 0.905 | 0.967 | 0.899 | 0.914 | 0.905 | 0.744 | 0.578 | 0.663 | 0.943 | 0.883 | 1.08 | 0.908 | 0.885 | 0.925 | 1.2 | 1.2 | 1.23 | 1.36 | 0.447
15 | H3255 | 0.906 | 1.12 | 0.802 | 0.839 | 0.874 | 0.561 | 0.562 | 0.515 | 0.532 | 0.559 | 0.655 | 0.679 | 0.662 | 0.63 | 0.741 | 0.875 | 1.09 | 0.941 | 0.838 | 0.87
16 | HARA | 1.05 | 1.01 | 1.05 | 1.24 | 0.981 | 0.868 | 1.03 | 0.914 | 0.958 | 0.78 | 0.934 | 0.943 | 0.797 | 0.752 | 0.791 | 0.959 | 1.02 | 0.948 | 0.839 | 0.847
